Source: US8324267B2, “Kinase inhibitors and the use thereof” (Forschungzentrum Karlsruhe GmbH, priority 2001, dated 2012)

What was measured:
[1] = tested on: chorioallantoic membrane (CAM); assay: Chorioallantoic membrane (CAM) angiogenesis assay; format: in vivo; conditions: chick embryos, 100 μg of inhibitor on methylcellulose disk, day 5 to day 7; FIG. 3
Procedure: The chorioallantoic membrane (CAM) assay was carried out as described (Wernert et al.) with chick embryos 5 days after fertilization. Methylcellulose disks (diameter 2 mm) with 100 μg of inhibitor were applied to the CAMs. Evaluation took place on day 7. A. negative control B. MAE 106-treated egg.
FIG. 3: Inhibition of angiogenesis in a chorioallantoic membrane (CAM). A: sham-treated cells (control). B: Mae106-treated cells of the CAM.

[2] = tested on: Human umbilical vein endothelial cells (HUVEC); assay: Endothelial cell proliferation, 3H-thymidine incorporation; format: cell-based; conditions: 24 h, FIG. 2
Procedure: Human umbilical vein endothelial cells (HUVEC) underwent serum-starved cultivation for 24 h. The cells were then preincubated with the appropriate compounds for 2 h and subsequently cultivated in the presence of the inhibitors with VEGF (MAE87) or bFGF (MAE106, MAZ51) for a further 24 h. The cells were then incubated with ^3H-thymidine. The amount of radioactivity incorporated into the cellular DNA was measured. All the experiments were carried out in triplicate.
HUVE cells were seeded in 100 μl/well (10^5 cells/ml) in 96-well culture plates and left to rest overnight. The cells were then starved with 50 μl of serum-free medium/well for 24 h. Subsequently, 50 μl of various concentrations of the test substances in serum-free medium (contains 2% DMSO) were added and incubated at 37° C. for 2 h. The medium containing the test compounds was removed and replaced by 50 μl of fresh medium with bFGF (12.5 ng/ml) or VEGF (100 ng/ml). Fresh dilutions of the doubly concentrated test substances in serum-free medium with 2% DMSO were added to the cells in 50 μl/well. The final concentration of DMSO was always 1%. After 24 h, ^3H-thymidine (1 μCi/well) was added, and the cells were incubated for a further 4-6 h. To analyze the incorporated radioactivity, the cells were trypsinized for 30 min and harvested with the aid of a harvester 96 cell (Tomtec) and fixed on a glass fiber membrane filter. The immobilized radioactivity was quantified with the aid of a MicroBeta TriLux liquid scintillation luminescence counter. The result is depicted in FIG. 2.
FIG. 2: Measurement of the (^3H)-thymidine incorporation into human endothelial cells (HUVEC) as a function of the concentration of inhibitors employed (MAE87, MAE106 and MAZ51). The inhibition of cell proliferation by MAE87, MAE106 and MAZ51 is dose-dependent in this case.

Tie2 = Tie2 (Homo sapiens, UniProt Q02763); assay: In vitro tyrosine kinase assay (ELISA, GST kinase, polyGlu,Tyr 4:1 acceptor); format: biochemical; conditions: read-out: inhibition (−) or stimulation (+) of kinase activity relative to the control; for inhibition at 1 µg/mL: inhibitor 1 μg/ml; for inhibition at 10 µg/mL: inhibitor 10 μg/ml
Procedure: (§1) The inhibition of various receptor tyrosine kinases in vitro by MAE87, MAE106 and MAZ51 was investigated. The inhibitors were investigated in 2 different concentrations (1 μg/ml and 10 μg/ml). The inhibition is stated in %. “+”=stimulation of kinase activity relative to the control,
(§2) “−”=inhibition of kinase activity relative to the control.
(§3) The activity of the RTK inhibitors were determined with the aid of an ELISA. In this assay, the corresponding kinases were employed as recombinant GST fusion proteins (glutathione S-transferase). Synthetic polyGlu, Tyr 4:1 is used as acceptor. The ability of different concentrations of the test substances to inhibit the RTK-mediated phosphorylation of the abovementioned acceptor was assessed. All the tests were carried out in duplicate.
(§4) ELISA plates were coated with 0.2 mg/ml of polyGlu, Tyr 4:1 in 100 mM bicarbonate buffer (pH 9.6) overnight. This solution was removed and the microtiter plates were washed twice with TBS buffer (10 mM Tris-HCl, pH 8.1, 100 mM NaCl) and then blocked with 5% BSA/TBS for 30 min. 50 μl of test substance (2 or 20 μg/ml in 10% DMSO), 25 μl of GST kinase in 4× kinase buffer (200 mM HEPES, 100 mM NaCl, 80 μM Na3VO4 and 0.04% BSA) were introduced. The reaction was started by adding 25 μl of 160 μM ATP (in 40 mM MnCl2) as substrate of the kinases. The final concentrations of the test compounds is thus 1 or 10 μg/ml in 5% DMSO. The GST fusion proteins were employed in the following concentrations. VEGFR-2 50 NG/well, VEGFR-3 300 ng/well, Tie2 300 ng/well, EGFR 50 ng/well, ErbB2 200 ng/well, IGF-1R 50 ng/well, FGFR1 200 ng/well. The reaction mixture was incubated at 30° C. for 90 min. The kinase reaction was stopped by adding 50 μl of 30 mM EDTA/well. The microtiter plates were washed twice with 0.05% Tween20/TBS. Anti-phosphotyrosine antibody (1:500) was added in 0.05% Tween20/TBS (with 0.5% BSA, 0.025% skimmed milk powder and 100 μM Na3VO4) and incubated at 37° C. for 1 h. The microtiter plates were washed three times with 0.05% Tween20/TBS. The HRP-conjugated detection autibody (1:1000) was added in 0.05% Tween20/TBS (with 0.5% BSA, 0.025% skimmed milk powder and 100 μM Na3VO4) and incubated at 37° C. for 1 h. The microtiter plates were washed three times with 0.05% Tween20/TBS. ABTS (2,2′-azino-di-(3-ethylbenz-thiazoline-6-sulfonate)) substrate (Roche Diagnostics GmbH, Mannheim) was added. The OD was determined at 405 nm using an ELISA reader.

IGF1R = IGF1R (Homo sapiens, UniProt P08069); assay: as above; format: biochemical; conditions: read-out: inhibition (−) or stimulation (+) of kinase activity relative to the control; for inhibition at 1 µg/mL: inhibitor 1 μg/ml; for inhibition at 10 µg/mL: inhibitor 10 μg/ml
Sequence of IGF1R (P08069 31-1367): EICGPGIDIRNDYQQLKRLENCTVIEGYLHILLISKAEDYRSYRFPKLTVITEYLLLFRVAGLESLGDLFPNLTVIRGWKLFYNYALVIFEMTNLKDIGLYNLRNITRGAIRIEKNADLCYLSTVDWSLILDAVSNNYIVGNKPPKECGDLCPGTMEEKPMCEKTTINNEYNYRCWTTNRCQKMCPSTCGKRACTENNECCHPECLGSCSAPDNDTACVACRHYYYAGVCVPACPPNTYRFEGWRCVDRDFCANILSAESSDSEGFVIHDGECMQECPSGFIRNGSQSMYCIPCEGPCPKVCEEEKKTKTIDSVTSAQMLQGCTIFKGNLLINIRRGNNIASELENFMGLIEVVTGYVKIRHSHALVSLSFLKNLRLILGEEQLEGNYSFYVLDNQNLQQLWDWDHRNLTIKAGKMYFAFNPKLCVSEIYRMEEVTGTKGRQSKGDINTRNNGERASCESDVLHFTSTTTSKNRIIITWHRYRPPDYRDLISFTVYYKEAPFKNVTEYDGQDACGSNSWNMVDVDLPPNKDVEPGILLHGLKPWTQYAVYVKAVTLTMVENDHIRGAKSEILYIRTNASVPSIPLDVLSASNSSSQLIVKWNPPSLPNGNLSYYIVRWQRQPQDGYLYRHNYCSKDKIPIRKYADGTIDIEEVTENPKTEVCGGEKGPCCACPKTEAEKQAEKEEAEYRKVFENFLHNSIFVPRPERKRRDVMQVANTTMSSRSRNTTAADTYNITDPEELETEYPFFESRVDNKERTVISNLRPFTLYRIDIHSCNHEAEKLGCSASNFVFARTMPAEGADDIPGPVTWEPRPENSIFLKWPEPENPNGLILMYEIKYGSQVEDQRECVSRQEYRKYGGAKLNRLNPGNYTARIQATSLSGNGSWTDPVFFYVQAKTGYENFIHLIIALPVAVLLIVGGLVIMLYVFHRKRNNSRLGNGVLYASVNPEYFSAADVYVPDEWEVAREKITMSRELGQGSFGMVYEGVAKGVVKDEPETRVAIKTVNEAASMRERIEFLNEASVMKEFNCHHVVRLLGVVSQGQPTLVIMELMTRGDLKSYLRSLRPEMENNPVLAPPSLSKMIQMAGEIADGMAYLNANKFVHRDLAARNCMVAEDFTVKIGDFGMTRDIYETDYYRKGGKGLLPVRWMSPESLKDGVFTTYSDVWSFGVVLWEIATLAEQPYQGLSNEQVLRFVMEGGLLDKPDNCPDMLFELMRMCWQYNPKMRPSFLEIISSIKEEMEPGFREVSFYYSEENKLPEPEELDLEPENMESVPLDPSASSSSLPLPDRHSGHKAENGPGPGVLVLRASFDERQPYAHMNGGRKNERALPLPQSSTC
Procedure: as §1, §2, §3, §4

VEGFR-2 = VEGFR-2 (Homo sapiens, UniProt P35968); assay: as above; format: biochemical; conditions: read-out: inhibition (−) or stimulation (+) of kinase activity relative to the control; for inhibition at 1 µg/mL: inhibitor 1 μg/ml; for inhibition at 10 µg/mL: inhibitor 10 μg/ml
Sequence of VEGFR-2 (P35968 20-1356): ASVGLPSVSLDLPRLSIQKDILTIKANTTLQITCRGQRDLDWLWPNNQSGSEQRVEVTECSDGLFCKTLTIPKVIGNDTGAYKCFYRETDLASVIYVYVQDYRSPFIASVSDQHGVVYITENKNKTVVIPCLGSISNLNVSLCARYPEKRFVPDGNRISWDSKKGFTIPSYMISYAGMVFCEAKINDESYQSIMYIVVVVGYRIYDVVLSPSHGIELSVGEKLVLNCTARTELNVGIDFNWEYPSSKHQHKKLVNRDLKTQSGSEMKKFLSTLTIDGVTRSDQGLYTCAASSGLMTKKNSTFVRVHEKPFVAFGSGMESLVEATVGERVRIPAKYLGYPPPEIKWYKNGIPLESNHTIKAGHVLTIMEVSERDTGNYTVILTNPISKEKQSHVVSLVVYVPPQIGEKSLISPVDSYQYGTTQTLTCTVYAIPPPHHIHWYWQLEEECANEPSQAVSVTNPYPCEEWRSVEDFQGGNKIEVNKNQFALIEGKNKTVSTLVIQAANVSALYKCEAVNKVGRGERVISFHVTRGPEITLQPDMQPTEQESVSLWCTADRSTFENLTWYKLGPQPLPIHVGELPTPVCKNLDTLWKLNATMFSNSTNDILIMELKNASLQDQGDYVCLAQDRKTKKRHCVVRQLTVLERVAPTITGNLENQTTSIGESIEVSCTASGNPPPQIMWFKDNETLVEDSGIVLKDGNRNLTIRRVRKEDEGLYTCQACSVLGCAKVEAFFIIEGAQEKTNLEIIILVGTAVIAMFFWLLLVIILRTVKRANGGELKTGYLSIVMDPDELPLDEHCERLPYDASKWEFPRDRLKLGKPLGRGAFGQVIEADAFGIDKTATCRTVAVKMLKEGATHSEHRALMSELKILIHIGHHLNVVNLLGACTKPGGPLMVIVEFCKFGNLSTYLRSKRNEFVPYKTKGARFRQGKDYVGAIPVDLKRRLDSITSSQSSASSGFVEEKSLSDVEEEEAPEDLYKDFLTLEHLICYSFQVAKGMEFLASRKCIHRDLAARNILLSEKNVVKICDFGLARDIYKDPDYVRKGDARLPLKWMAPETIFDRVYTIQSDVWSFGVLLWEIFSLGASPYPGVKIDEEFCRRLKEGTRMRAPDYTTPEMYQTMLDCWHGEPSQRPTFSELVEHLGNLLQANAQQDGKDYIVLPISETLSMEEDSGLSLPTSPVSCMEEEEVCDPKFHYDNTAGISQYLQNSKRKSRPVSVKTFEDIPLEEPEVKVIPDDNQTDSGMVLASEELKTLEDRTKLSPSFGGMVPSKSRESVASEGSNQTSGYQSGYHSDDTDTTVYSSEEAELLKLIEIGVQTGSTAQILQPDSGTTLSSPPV
Procedure: as §1, §2, §3, §4

EGFR = EGFR (Homo sapiens, UniProt P00533); assay: as above; format: biochemical; conditions: read-out: inhibition (−) or stimulation (+) of kinase activity relative to the control; for inhibition at 1 µg/mL: inhibitor 1 μg/ml; for inhibition at 10 µg/mL: inhibitor 10 μg/ml
Sequence of EGFR (P00533 25-1210): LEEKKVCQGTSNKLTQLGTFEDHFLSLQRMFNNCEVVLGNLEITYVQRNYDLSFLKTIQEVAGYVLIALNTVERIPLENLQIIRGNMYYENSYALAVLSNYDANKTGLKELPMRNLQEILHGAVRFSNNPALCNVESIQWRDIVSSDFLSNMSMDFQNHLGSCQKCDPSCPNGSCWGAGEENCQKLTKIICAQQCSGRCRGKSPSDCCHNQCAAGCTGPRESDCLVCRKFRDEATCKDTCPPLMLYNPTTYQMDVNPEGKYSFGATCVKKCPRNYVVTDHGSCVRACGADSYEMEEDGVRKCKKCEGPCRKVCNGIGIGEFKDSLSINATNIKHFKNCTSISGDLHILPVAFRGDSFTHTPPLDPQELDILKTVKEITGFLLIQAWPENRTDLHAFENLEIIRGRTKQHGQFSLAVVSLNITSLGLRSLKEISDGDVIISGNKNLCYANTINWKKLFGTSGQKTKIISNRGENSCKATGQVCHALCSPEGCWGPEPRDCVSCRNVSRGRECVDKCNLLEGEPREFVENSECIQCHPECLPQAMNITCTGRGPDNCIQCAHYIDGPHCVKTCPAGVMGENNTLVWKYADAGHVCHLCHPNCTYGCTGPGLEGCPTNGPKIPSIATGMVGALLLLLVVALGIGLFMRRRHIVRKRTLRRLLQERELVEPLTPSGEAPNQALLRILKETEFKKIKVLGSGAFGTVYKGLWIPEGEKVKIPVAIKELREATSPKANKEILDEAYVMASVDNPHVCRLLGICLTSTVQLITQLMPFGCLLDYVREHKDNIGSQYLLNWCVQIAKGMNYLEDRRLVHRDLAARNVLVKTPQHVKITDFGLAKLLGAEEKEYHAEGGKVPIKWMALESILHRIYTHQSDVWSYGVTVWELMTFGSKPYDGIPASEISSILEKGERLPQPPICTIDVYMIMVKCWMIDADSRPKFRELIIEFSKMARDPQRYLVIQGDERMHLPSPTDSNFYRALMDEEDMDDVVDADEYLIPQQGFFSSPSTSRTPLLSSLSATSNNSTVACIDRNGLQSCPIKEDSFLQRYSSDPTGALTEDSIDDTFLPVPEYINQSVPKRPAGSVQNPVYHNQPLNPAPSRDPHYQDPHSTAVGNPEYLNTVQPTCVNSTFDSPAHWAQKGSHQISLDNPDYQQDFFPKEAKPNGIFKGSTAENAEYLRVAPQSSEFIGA
Procedure: as §1, §2, §3, §4

VEGFR-3 = VEGFR-3 (Homo sapiens, UniProt P35916); assay: as above; format: biochemical; conditions: read-out: inhibition (−) or stimulation (+) of kinase activity relative to the control; for inhibition at 1 µg/mL: inhibitor 1 μg/ml; for inhibition at 10 µg/mL: inhibitor 10 μg/ml
Procedure: as §1, §2, §3, §4

FGFR1 = FGFR1 (Homo sapiens, UniProt P11362); assay: as above; format: biochemical; conditions: read-out: inhibition (−) or stimulation (+) of kinase activity relative to the control; for inhibition at 1 µg/mL: inhibitor 1 μg/ml; for inhibition at 10 µg/mL: inhibitor 10 μg/ml
Sequence of FGFR1 (P11362 22-822): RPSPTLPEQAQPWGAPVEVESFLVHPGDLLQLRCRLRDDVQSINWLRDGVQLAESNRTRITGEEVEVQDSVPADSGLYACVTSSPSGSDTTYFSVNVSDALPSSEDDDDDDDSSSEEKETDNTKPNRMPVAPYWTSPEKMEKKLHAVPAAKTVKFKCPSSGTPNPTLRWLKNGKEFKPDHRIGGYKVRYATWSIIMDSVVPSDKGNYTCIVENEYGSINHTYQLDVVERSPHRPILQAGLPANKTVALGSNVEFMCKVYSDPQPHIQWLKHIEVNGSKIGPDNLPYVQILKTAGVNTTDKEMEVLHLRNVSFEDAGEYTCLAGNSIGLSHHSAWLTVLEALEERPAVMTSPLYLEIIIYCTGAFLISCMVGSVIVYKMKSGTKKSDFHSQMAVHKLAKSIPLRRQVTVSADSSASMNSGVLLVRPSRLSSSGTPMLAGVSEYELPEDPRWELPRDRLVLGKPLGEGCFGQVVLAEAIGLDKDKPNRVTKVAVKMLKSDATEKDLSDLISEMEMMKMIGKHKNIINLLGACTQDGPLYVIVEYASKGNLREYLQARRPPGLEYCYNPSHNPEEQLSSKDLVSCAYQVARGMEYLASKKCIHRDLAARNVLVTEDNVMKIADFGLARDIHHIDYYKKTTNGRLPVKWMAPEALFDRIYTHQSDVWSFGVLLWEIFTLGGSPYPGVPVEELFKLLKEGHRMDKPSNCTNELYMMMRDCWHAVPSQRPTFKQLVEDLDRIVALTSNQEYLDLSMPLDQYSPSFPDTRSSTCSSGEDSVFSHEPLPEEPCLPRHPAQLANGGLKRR
Procedure: as §1, §2, §3, §4

ErbB2 = ErbB2 (Homo sapiens, UniProt P04626); assay: as above; format: biochemical; conditions: read-out: inhibition (−) or stimulation (+) of kinase activity relative to the control; for inhibition at 1 µg/mL: inhibitor 1 μg/ml; for inhibition at 10 µg/mL: inhibitor 10 μg/ml
Procedure: as §1, §2, §3, §4

SMILES | inhibition of angiogenesis (network of blood vessels) in the CAM [1] | inhibition of cell proliferation (3H-thymidine incorporation) ([2]; VEGF stimulated) | inhibition at 1 µg/mL (Tie2) | inhibition at 10 µg/mL (Tie2) | inhibition at 1 µg/mL (IGF1R) | inhibition at 10 µg/mL (IGF1R) | inhibition at 1 µg/mL (VEGFR-2) | inhibition at 10 µg/mL (VEGFR-2) | inhibition at 1 µg/mL (EGFR) | inhibition at 10 µg/mL (EGFR) | inhibition at 1 µg/mL (VEGFR-3) | inhibition at 10 µg/mL (VEGFR-3) | inhibition at 1 µg/mL (FGFR1) | inhibition at 10 µg/mL (FGFR1) | inhibition at 1 µg/mL (ErbB2) | inhibition at 10 µg/mL (ErbB2) | inhibition of cell proliferation (3H-thymidine incorporation) ([2]; bFGF stimulated)
O=C1Nc2ccccc2C1=Cc1ccc(O)cc1O [MAE87, 3-(2,4-Dihydroxybenzylidene)-1,3-dihydroindol-2-one] | Inhibit Angiogenesis | dose-dependent | -1% | 65% | 63% | 94% | 46% | 77% | 70% | 86% | 9% | 74% | 50% | 94% | 45% | 84% | –
COc1ccc(C=C2C(=O)Nc3ccccc32)cc1F [MAE106, 3-(3-Fluoro-4-methoxybenzylidene)-1,3-dihydroindole-2-one] | highly underdeveloped | – | 5% | 28% | 10% | 71% | -21% | 58% | 5% | 64% | -1% | 57% | -5% | 1% | -4% | 41% | dose-dependent
CN(C)c1ccc(C=C2C(=O)Nc3ccccc32)c2ccccc12 [MAZ51, 3-(4-Dimethylaminonaphthalen-1-ylmethylene)-1,3-dihydroindol-2-one] | Inhibit Angiogenesis | – | 7% | 27% | 10% | 68% | 8% | 74% | 25% | 58% | 4% | 35% | -1% | 5% | 11% | 39% | dose-dependent
